# In US20160143995A1, “Method of Treating Intracellular Infection” (priority 2013, published 2016):
# Read-outs that look alike come from different tables or passages of the source.
# Experiments:
# [1] = MTS staining for PBMC viability to measure cytotoxicity; type: cell-based, human; settings: human, PHA-stimulated pooled PBMCs, HIV-infected, infected PBMCs, six days, MTS, unit printed only with high-test concentration, read-out: TC50 (50% cytotoxicity)
# Description: (§1) Pooling (mixing) of mononuclear cells from more than one donor was used to minimize the variability observed between individual donors, which results from quantitative and qualitative differences in HIV infection and overall response to the PHA and IL-2 of primary lymphocyte populations. Each plate contains virus/cell control wells (cells plus virus) and experimental wells (drug plus cells plus virus). In this in vitro assay, PBMC viability remains high throughout the duration of the incubation period. Therefore, infected wells are used in the assessment of both antiviral activity and cytotoxicity. […] The PBMC cultures were maintained for six days following infection at 37° C., 5% CO2. After this period, cell-free supernatant samples were collected for analysis of reverse transcriptase activity. Following removal of supernatant samples, compound cytotoxicity was measured by addition of MTS to the plates for determination of cell viability. Wells were also examined microscopically and any abnormalities were noted. At assay termination, the assay plates were stained with the soluble tetrazolium-based dye MTS (CellTiter®96 Reagent, Promega) to determine cell viability and quantify compound toxicity. MTS is metabolized by the mitochondrial enzymes of metabolically active cells to yield a soluble formazan product, allowing the rapid quantitative analysis of cell viability and compound cytotoxicity. […] At termination of the assay, 10-25 μL of MTS reagent was added per well (10% final concentration based on volume) and the microtiter plates were then incubated for 4-6 hrs at 37° C., 5% CO2 to assess cell viability. Adhesive plate sealers were used in place of the lids, the sealed plate was inverted several times to mix the soluble formazan product and the plate was read spectrophotometrically at 490/650 nm with a Molecular Devices Vmax or SpectraMax Plus plate reader. […]
# HIV-1JR-CSF [2] = system: HIV-1JR-CSF
# HIV-1JR-CSF [3] = test: Anti HIV efficacy evaluation in fresh human PBMCs (reverse transcriptase activity); settings: for IC50: Human immunodeficiency virus 1, PBMC, in Homo sapiens, 144 h, read-out: IC50 (50% inhibition of virus replication)
# [4] = system: primary human hepatocytes infected with HBV; test: Viability (CellTiter-Glo) of primary human hepatocytes infected in vitro with HBV; type: cell-based; settings: forty eight hours after treatment, in the absence of TNF-α
# Excerpt: Primary human hepatocytes were infected in vitro with HBV using an adenoviral delivery system as previously described (Chin R, Earnest-Silveira L, Koeberlein B, Franz S, Zentgraf H, Bowden S, Bock C-T, Torresi J. Modulation of MAPK pathways and cell cycle byreplicating hepatitis B virus: factors contributing tohepatocarcinogenesis. J Hepatology 2007;47:325-37). The delivery system included a green fluorescent protein marker so that the proportion of infected cells could be quantified. Using this system approximately 100% of hepatocytes were infected with HBV. Cells were rested for 2 days after infection and then they were treated with the indicated agents. Forty eight hours after treatment cell viability was assessed using CellTiter-Glo® (Promega, Madison Wis. USA) according to the manufacturer's protocol. This experiment was performed in triplicate and repeated 2 times using 2 independent donors. The highest CellTiter-Glo result from one of the triplicate untreated samples was used to set the 100% viability mark.
# human PBMCs = test: MTS staining for PBMC viability to measure cytotoxicity; type: cell-based; settings: fixed concentration (10 ng/mL) of TNF-α versus birinapant alone; within expected biological variability
# Description: as §1
# HBV = test: Treatment of HBV infected mice (serum HBV DNA); type: in vivo, hepatitis B virus
# [5] = system: HIV-infected (GFP+) cultured CD4+ lymphocytes; test: FACS of living (Active-Caspase 3 negative) HIV NL4.3 infected CD4+ lymphocytes; type: cell-based, human; settings: single dose of 10 uM, within 24 hours
# [6] = system: Mycobacterium tuberculosis (strain H37Rv); test: Mycobacterium tuberculosis infected mice, lung bacterial burden; type: in vivo
# [7] = Toxicity of treatment in HBV-infected mice; type: in vivo
# Description: C57BL/6 mice were infected with HBV and 6 days after infection were treated with weekly doses of birinapnat (30 mg/kg administered intraperitoneally) or vehicle control (DMSO) for a total of 3 weeks (3 doses).
molecule,measurement,setting,value
"Cc1cn([C@H]2C[C@H](N=[N+]=[N-])[C@@H](CO)O2)c(=O)[nH]c1=O [AZT, Zidovudine]",CC50 at 6 days,"[1]; high-test concentration 1,000 nM",> 1 µM
same,Antiviral Index (TC50/IC50),HIV-1JR-CSF [2],>584
same,IC50,HIV-1JR-CSF [3],0.00171 µM
TRAIL: TNF-related apoptosis inducing ligand,death of primary human hepatocytes infected with HBV,[4],virtually no efficacy
"CC[C@H](NC(=O)[C@H](C)NC)C(=O)N1C[C@@H](O)C[C@H]1Cc1c(-c2[nH]c3cc(F)ccc3c2C[C@@H]2C[C@H](O)CN2C(=O)[C@H](CC)NC(=O)[C@H](C)NC)[nH]c2cc(F)ccc12 [Birinapant, birinapant]",CC50 at 6 days,[1]; high-test concentration 10 μM,6.47 µM
same,increase in cytotoxicity in the presence of TNF-α,human PBMCs,1.6 fold
same,reduction of HBV viral load compared to vehicle control,"HBV; C57BL/6 mice, 30 mg/kg intraperitoneally weekly, after three doses",2 logs
same,HBV DNA in serum,"HBV; C57BL/6 mice, 39 days after the first dose, all treated mice",no detectable HBV DNA
same,efficacy against HBV when TNF-α is antagonized,HBV; HBV infected mice injected intraperitoneally with TNF-α antagonizing antibodies,abrogates the efficacy
same,HIV infected cells that die,[5],55%
same,reduction in bacterial burden versus DMSO control,"[6]; mice, intraperitoneal, 30 μg/g weekly x3, started 4 weeks after infection, p=0.012",0.33 Log10 CFU/lung
same,macroscopic appearance of the lungs,[6]; upon dissection after three weekly doses,"pink, uniform and healthier in appearance"
same,death of primary human hepatocytes infected with HBV,[4],not effective
same,toxicity related to treatment,[7],No toxicity
same,IC50,HIV-1JR-CSF [3],0.25 µM
same,increase in antiviral potency in the presence of TNF-α,HIV-1JR-CSF [3]; fixed concentration (10 ng/mL) of TNF-α versus birinapant alone,6 fold
TNF-α,reduction in HIV replication,"HIV-1JR-CSF [3]; TNF-α alone, 10 ng/mL",35%
